{"source": "patent US20160025704A1", "about": "“METHODS FOR IDENTIFYING NEUROPROTECTIVE PKC ACTIVATORS” (priority 2013, published 2016)", "key": {"TA 1535 Cells": {"system": "TA 1535 Cells", "experiment": "AMES test, TA1535 cells", "assay_type": "cell-based", "conditions": "TA1535 Cells, plate count", "source_text": "(§1) The AMES test is a rapid screening of the mutagenic potential of chemical compounds. […] Between 50% and 70% of all known carcinogens test positive in the AMES test."}, "[1]": {"system": "TA 100 cells & TA 1535 cells / TA 98 cells", "experiment": "AMES testing, overall result (mutagenic potential)", "assay_type": "cell-based", "source_text": "as §1"}, "5XFAD mice": {"system": "5XFAD mice", "experiment": "Water maze learning and memory and amyloid deposition in 5XFAD mice", "assay_type": "in vivo", "conditions": "2 times/week from 2 months old", "source_text": "Protocol: 5-month old 5XFAD mice were trained for 5-6 days (3-4 trials/day) to find a hidden platform (9 cm diameter), submerged about 2 cm below the water surface in the a maze pool with 114 cm diameter. After the training trials, a probe trial (a quadrant test or memory retention trial) was given with the platform removed to assess memory retention for its location by the distance the mouse moved in the quadrants. […] Non-treated groups (wild-type and transgenic (5×) mice) received the same vehicle volumes, mechanism of delivery, and frequency of administration as the treated groups"}, "HL-60 cells": {"system": "HL-60 cells", "conditions": "Kraft et al. 1986; cited from earlier work"}, "[2]": {"system": "fragile X transgenic mice", "experiment": "Synapses in fragile X transgenic mice", "assay_type": "in vivo", "conditions": "25 μg/kg body weight intraperitoneal twice a week for 3 months", "protocol": "Protocol: Bryostatin (25 μg/kg body weight, intraperitoneal injection) was administered to 2 month old fragile X transgenic mice twice a week for 3 months. […] Non-treated groups (WC and TC) received the same vehicle volumes, mechanism of delivery, and frequency of administration as the treated groups."}, "monomeric Aβ(1-42)": {"system": "monomeric Aβ(1-42)", "experiment": "Aβ peptide degradation by SH+hNEP cells", "assay_type": "cell-based, human", "conditions": "1 nM, 2.5 μg monomeric Aβ(1-42), 4 hours", "protocol": "Protocol: Intact SH+hNEP cells were incubated with 2.5 μg of monomeric Aβ(1-42) for 4 hours in the absence or presence of bryostatin (Bryo, 1 nM). Some cells were cotreated with phosphoramidon (PA, 10 μM, a specific neprilysin inhibitor), Ro 32-0432 (Ro, 2 μM, a PKC inhibitor), or PA+Ro in the presence of bryostatin (1 nM) for 4 hours. Aβ peptide was then precipitated from the reactions by 20% trichloroacetic acid and immunoblotted with use of Aβ peptide 1-16 antibody (6E10). Arrow indicates the size of monomeric Aβ peptide (FIG. 18), which is around 4 kDa. Densitometry measurements of developed protein bands on Western blots were made and assigned as relative expression change (Mean+SEM of three independent experiments, **P<0.01, Bryo compared with untreated; #P<0.01, PA, Ro, or PA+Ro compared with Bryo.)."}, "HCN-2 cells": {"system": "HCN-2 cells", "experiment": "Synaptogenesis in HCN-2 cells", "assay_type": "cell-based, human", "conditions": "10 days", "protocol": "FIG. 9 illustrates that activation of PKC-ε induces synaptogenesis in HCN-2 cells. The HCN-2 cell line was derived from cortical tissue removed from a patient undergoing hemispherectomy for intractable seizures associated with Rasmussen's encephalitis. The cells were treated with either DCPLA-methyl ester or bryostatin-1 for 10 days. […] Thus, PKC-ε activation can induce synaptogenesis in both embryonic and adult neuronal cells."}, "[3]": {"system": "healthy brown Norway rats", "experiment": "Learning, memory and mushroom spine synapses in healthy rats, water maze training", "assay_type": "in vivo", "parameters": "learning acquisition: dose or concentration left out as unconfirmed", "source_text": "Protocol: Non-disease, healthy brown Norway rats (at 4-5 months old) were used in this study. […] (Nv=naîve controls; Sw=swim controls; Mz=water maze treatment; and Mz/Br=water maze treatment plus bryostatin treatment)."}, "[4]": {"conditions": "clinical trials, Varterasian et al. 2000; cited from earlier work"}, "human neprilysin": {"system": "human neprilysin", "experiment": "Neprilysin activity in SH+hNEP cells (fluorometric)", "assay_type": "cell-based", "conditions": "1 nM for 15 min to 3 hours; 0.27, 0.5, 1, or 2 nM for 1 hr (FIG. 32)", "protocol": "Protocol: Intact SH+hNEP cells were incubated in the absence or presence of bryostatin (1 nM) for 15 min, 30 min, 1 hour, or 3 hours. Cells were then lysed and neprilysin activity was measured. 50 μg of total lysates were separately incubated with 0.5 mM glutaryl-Ala-Ala-Phe-4-methoxy-2-naphthylamide as a substrate. Further incubation with leucine aminopeptidases released free 4-methoxy-2-naphthylamide that was measured fluorometrically at an emission of 425 nm (Mean+SEM of three independent experiments, *P<0.05; **P<0.01, Bryo compared with untreated condition). Intact SH+hNEP cells were incubated in the absence or presence of bryostatin (Bryo) at 0.27, 0.5, 1, or 2 nM concentration for 1 hr, lysed and then neprilysin activity for each condition was fluorometically measured as shown in (A) (Mean+SEM of three independent experiments, *P<0.05; **P<0.01, Bryo compared with untreated condition). Results are shown below in FIG. 32 (A—fluorometric results of free 4-methoxy-2-naphthylamide measured at different time points; B—fluorometric results of free 4-methoxy-2-naphthylamide measured at different concentrations of bryostatin).\nImmunoprecipitates were subjected to Western blot analysis using phospho-Ser/Thr or neprilysin antibody (Mean+SEM of three independent experiments, **P<0.01, Bryo compared with untreated; #P<0.01, Ro+Bryo compared with Bryo). […]"}, "Primary human neurons": {"system": "Primary human neurons", "experiment": "Synaptogenicity in primary human neurons", "assay_type": "cell-based", "conditions": "0.27 nM", "protocol": "Protocol: Primary human neurons were treated with either DCPLA-methyl ester (100 nM) or bryostatin-1 (0.27 nM)."}, "[5]": {"conditions": "10 mg/kg body weight intraperitoneal, 3 doses every other days, during water maze training"}}, "note": "Like-named read-outs stand apart in the source and are kept apart here."}
{"smiles": "CCCCCC1CC1CC1CC1CCCCCCCC(=O)O", "note": "(centres unmarked) [DCPLA, 8-[2-(2-pentylcyclopropyl)methyl]-cyclopropaneoctanoic acid]", "values": [{"measurement": "Negative", "setting": "TA 1535 Cells; 0.125 mM", "value": 95}, {"measurement": "Positive", "setting": "TA 1535 Cells; 0.125 mM", "value": 1}, {"measurement": "Negative", "setting": "TA 1535 Cells; 0.25 mM", "value": 93}, {"measurement": "Positive", "setting": "TA 1535 Cells; 0.25 mM", "value": 3}, {"measurement": "Negative", "setting": "TA 1535 Cells; 0.5 mM", "value": 94}, {"measurement": "Positive", "setting": "TA 1535 Cells; 0.5 mM", "value": 2}, {"measurement": "Negative", "setting": "TA 1535 Cells; 1 mM", "value": 93}, {"measurement": "Positive", "setting": "TA 1535 Cells; 1 mM", "value": 3}, {"measurement": "AMES testing result", "setting": "[1]", "value": "not mutagenic"}, {"measurement": "Result (Mutagenic Potential)", "setting": "[1]", "value": "Result: Not mutagenic, p > 0.05"}, {"measurement": "amyloid deposition", "setting": "5XFAD mice; 20 mg/m2 tail vein", "value": "reduced amyloid deposition"}, {"measurement": "learning and memory deficits (water maze)", "setting": "5XFAD mice; 20 mg/m2 tail vein", "value": "prevented learning (A, C) and memory deficits (B, D)"}]}
{"smiles": "CCC/C=C/C=C/C(=O)O[C@H]1/C(=C/C(=O)OC)C[C@H]2C[C@H]([C@@H](C)O)OC(=O)C[C@H](O)C[C@@H]3C[C@H](OC(C)=O)C(C)(C)[C@](O)(C[C@@H]4C/C(=C/C(=O)OC)C[C@H](/C=C/C(C)(C)[C@]1(O)O2)O4)O3", "note": "[Bryostatin, bryostatin-1]", "values": [{"measurement": "phorbol ester-induced differentiation of HL-60 cells", "setting": "HL-60 cells", "value": "block phorbol ester-induced differentiation of HL-60 cells"}, {"measurement": "losses of postsynaptic dendritic spines", "setting": "[2]", "value": "rescued the losses of"}, {"measurement": "losses of presynaptic vesicles within presynaptic axonal boutons", "setting": "[2]", "value": "rescued the losses of"}, {"measurement": "losses of synapses", "setting": "[2]", "value": "rescued the losses of synapses"}, {"measurement": "AMES testing result", "setting": "[1]; summary of Tables 1-4", "value": "not mutagenic"}, {"measurement": "Aβ peptide degradation", "setting": "monomeric Aβ(1-42)", "value": "induces Aβ peptide degradation through neprilysin activation"}, {"measurement": "differentiation, neuronal branching and punctate colocalization of PSD-95 and synaptophysin", "setting": "HCN-2 cells", "value": "significant differentiation with neuronal branching and increased punctate colocalization of PSD-95 and synaptophysin"}, {"measurement": "memory retention", "setting": "[3]; [5]", "value": "promoted"}, {"measurement": "memory-specific induction of mushroom spine synapses", "setting": "[3]; [5]", "value": "promotes memory-specific induction of mushroom spine synapses"}, {"measurement": "non-mushroom spine density in naïve rats", "setting": "[3]; Bryostatin alone, no water maze", "value": "increased non-mushroom spine density"}, {"measurement": "learning acquisition", "setting": "[3]; intraperitoneal, 3 doses every other days, during water maze training", "value": "promoted learning acquisition"}, {"measurement": "amyloid deposition", "setting": "5XFAD mice; 30 μg/kg intraperitoneal", "value": "reduced amyloid deposition"}, {"measurement": "learning and memory deficits (water maze)", "setting": "5XFAD mice; 30 μg/kg intraperitoneal", "value": "prevented learning (A, C) and memory deficits (B, D)"}, {"measurement": "tumor growth promotion", "setting": "[4]", "value": "does not promote tumor growth"}, {"measurement": "neprilysin activity", "setting": "human neprilysin", "value": "increases neprilysin activity"}, {"measurement": "co-localized staining of PSD-95 and synaptophysin in puncta (number of synapses)", "setting": "Primary human neurons; 30 days", "value": "an increase in co-localized staining of PSD-95 and synaptophysin in puncta"}, {"measurement": "survival, neuritic branching and connections", "setting": "Primary human neurons; 40 days", "value": "improved survival with increased neuritic branching and connections"}]}
